Measured values as given in ChEMBL document CHEMBL1201862, “PubChem BioAssay data set” (2004).
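All cell lines were grown in 96-well plates and treated with compound for 48 hours. GI50 marks 50% less growth.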 Activity calls are given as the source filed them. No stated cut-off is given here; in the data, active = GI50 up to about 1.1 µM and inactive = higher.

Experiments:
Experiment in all cases: NCI anticancer screen, dose series, 48 h
[1] = system: RXF 393
[2] = system: UACC-257
[3] = system: SW-620
[4] = system: A498
[5] = system: Hs-578T
[6] = system: HOP-62
[7] = system: SK-MEL-28
[8] = system: MOLT-4
[9] = system: SF-268
[10] = system: NCI/ADR-RES
[11] = system: IGROV-1
[12] = system: MCF7
[13] = system: UACC-62
[14] = system: TK-10
[15] = system: U-251
[16] = system: EKVX
[17] = system: BT-549
[18] = system: RPMI-8226
[19] = system: T47D
[20] = system: HOP-92

Measured: GI50

O=C(O)CC(Cc1ccccc1)C(=O)O (stereo not drawn)
inactive: [1] > 100 µM | [2] > 100 µM | [3] > 100 µM | [4] > 100 µM | [5] 50.5 µM | [6] > 100 µM | [7] > 100 µM | [8] > 100 µM | [9] > 100 µM | [10] > 100 µM | [11] > 100 µM | [12] > 100 µM | [13] > 100 µM | [14] > 100 µM | [15] > 100 µM | [16] > 100 µM | [17] > 100 µM | [18] > 100 µM | [19] > 100 µM

COc1ccc(CC(C)NCC(O)c2ccc(O)c(NC=O)c2)cc1 (stereo not drawn)
inactive: [1] > 100 µM | [2] > 100 µM | [3] > 100 µM | [4] > 100 µM | [5] > 100 µM | [6] > 100 µM | [7] > 100 µM | [8] > 100 µM | [9] > 100 µM | [10] > 100 µM | [11] > 100 µM | [12] > 100 µM | [13] > 100 µM | [14] > 100 µM | [15] > 100 µM | [16] > 100 µM | [17] > 100 µM | [18] > 100 µM | [19] > 100 µM

CCOC(=O)CC1Nc2ccccc2C12CCc1c([nH]c3ccccc13)C2C(=O)OCC (stereo not drawn)
inactive: [1] 5.79 µM | [2] 38 µM | [3] 6.87 µM | [4] 9.42 µM | [5] 8.18 µM | [6] > 100 µM | [7] 35.1 µM | [8] 6.1 µM | [9] 51.4 µM | [10] 12.6 µM | [11] 6.92 µM | [12] 13.1 µM | [13] 9.62 µM | [14] 32.5 µM | [15] 48.5 µM | [16] 16.2 µM | [17] > 100 µM | [18] 2.77 µM | [19] 10.4 µM

C1=Nc2sc3c(c2C2=NCCN12)CCCC3
inactive: [1] 25 µM | [2] 16.3 µM | [3] 21 µM | [4] 20.6 µM | [5] 21.5 µM | [6] 20 µM | [7] 20.7 µM | [8] 13.8 µM | [9] 20.6 µM | [10] 18.2 µM | [11] 15.4 µM | [12] 18.3 µM | [13] 15.4 µM | [14] 16.6 µM | [15] 21.4 µM | [16] 15.6 µM | [17] 15.2 µM | [18] 20.8 µM | [19] 17.7 µM

c1ccc(C2SCc3nc4cc5ccccc5cc4n32)cc1 (stereo not drawn)
inactive: [1] > 100 µM | [2] > 100 µM | [3] > 100 µM | [20] 57.3 µM | [5] 60.3 µM | [6] > 100 µM | [7] > 100 µM | [8] > 100 µM | [9] > 100 µM | [10] > 100 µM | [11] > 100 µM | [12] > 100 µM | [13] > 100 µM | [14] > 100 µM | [15] > 100 µM | [16] > 100 µM | [17] > 100 µM | [18] > 100 µM | [19] > 100 µM

CCN(CC)CCC(=O)c1ccc(Sc2ccc(F)cc2)cc1
inactive: [1] 17 µM | [2] 15.7 µM | [3] 19.9 µM | [4] 26.4 µM | [5] 15.8 µM | [6] 18.7 µM | [7] 17.8 µM | [8] 15.1 µM | [9] 15.8 µM | [10] 24.3 µM | [11] 18.2 µM | [12] 14.7 µM | [13] 16.2 µM | [14] 14.4 µM | [15] 16 µM | [16] 19.9 µM | [17] 17.2 µM | [18] 2.44 µM | [19] 21.2 µM

O=C(O)c1ccc(-c2nc3cc(Cl)ccc3[nH]2)cc1
inactive: [1] > 100 µM | [3] > 100 µM | [20] > 100 µM | [5] > 100 µM | [6] > 100 µM | [8] > 100 µM | [10] > 100 µM | [11] > 100 µM | [12] > 100 µM | [15] > 100 µM | [16] > 100 µM | [17] > 100 µM | [18] > 100 µM | [19] > 100 µM

CN(Cc1cnc2nc(N)nc(N)c2n1)c1ccc(C(=O)NC2CCCCC2)cc1
inactive: [1] 33 µM | [2] 21.3 µM | [3] 11.1 µM | [4] 24.4 µM | [5] 23.6 µM | [6] 34.5 µM | [8] 34.7 µM | [9] 19 µM | [10] > 100 µM | [11] 13.3 µM | [12] 29 µM | [13] 8.2 µM | [14] 51.3 µM | [15] 11.8 µM | [16] 53.6 µM | [17] 23.2 µM | [18] > 100 µM | [19] 87.1 µM

CCC(C)C(C(=O)N/N=C1/SCC(=O)N1c1ccccc1)C(=O)N/N=C1/SCC(=O)N1c1ccccc1 (stereo not drawn)
inactive: [1] 16.4 µM | [2] > 100 µM | [3] 41.9 µM | [20] 19 µM | [5] 32.5 µM | [6] 79.3 µM | [7] 16.9 µM | [8] 36 µM | [9] 44.9 µM | [10] > 100 µM | [11] > 100 µM | [12] 34.1 µM | [13] 20 µM | [14] > 100 µM | [15] 36.8 µM | [16] > 100 µM | [17] > 100 µM | [19] > 100 µM

CCOP(=O)(OCC)OC1CC(n2cnc3c(N(CC)CC)ncnc32)OC1CO[Si](C)(C)C(C)(C)C (stereo not drawn)
inactive: [1] 16.9 µM | [2] 16.5 µM | [3] 16.2 µM | [5] 22 µM | [6] 19.7 µM | [7] 18.5 µM | [8] 11.2 µM | [9] 15.3 µM | [10] 20.8 µM | [11] 16.9 µM | [12] 21.8 µM | [13] 14.8 µM | [14] 18.3 µM | [15] 15.1 µM | [16] 5.86 µM | [17] 16.1 µM | [18] 28 µM | [19] 12 µM

CCOC(=O)c1nc2ccccc2nc1Nc1ccc(OC)c(OC)c1
inactive: [20] 62.7 µM | [5] 37.7 µM | [6] > 100 µM | [7] > 100 µM | [8] > 100 µM | [9] 27.3 µM | [10] > 100 µM | [11] > 100 µM | [12] > 100 µM | [13] > 100 µM | [14] > 10 µM | [15] 75.7 µM | [16] 18.7 µM | [17] > 100 µM | [18] > 100 µM | [19] > 100 µM
